Measured values taken from patent publication US7109222B2, “Compounds that modulate PPAR activity and methods of preparation” (Warner-Lambert Company, LLC, priority 2002, dated 2006).

What was measured:
hPPARβ = target: T1, hPPARβ (Homo sapiens, UniProt Q03181); experiment: Test A: transient transfection assay in HepG2 cells, Gal4-PPAR chimeric receptor, luciferase reporter (hPPARβ); format: cell-based; settings: HepG2 cells transfected with hPPARβ chimeric receptor; 24 hours incubation; compound 50 μM to 50 pM; read-out: Hep G2-hβ EC50
T1 sequence (Q03181 211-441 limits assumed): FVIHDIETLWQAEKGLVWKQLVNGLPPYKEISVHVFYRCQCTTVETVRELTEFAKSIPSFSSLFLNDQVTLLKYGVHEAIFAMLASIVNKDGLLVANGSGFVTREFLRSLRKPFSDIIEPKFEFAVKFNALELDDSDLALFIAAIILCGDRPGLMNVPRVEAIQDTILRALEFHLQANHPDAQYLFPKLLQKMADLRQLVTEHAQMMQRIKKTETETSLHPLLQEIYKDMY
Description: (§1) 1. Test A. Transient Transfections Assay Using the HepG2 Hepatoma Cell Line.
(§2) HepG2 cells were transiently transfected with an expression plasmids encoding hPPARα, hPPARβ or mPPARγ chimeric receptors and a reporter containing the yeast upstream activating sequence (UAS) upstream of the viral E1B promoter controlling a luciferase reporter gene. In addition, the plasmid pRSVβ-gal was used to control for transfection efficiency. HepG2 cells were grown in DMEM supplemented with 10% FBS and 1 μM non-essential amino acid. On the first day, cells were split into 100 mm dishes at 2.5×10^6/dish and incubated overnight at 37C.°/5% CO2. On the second day the cells were transiently transfected with plasmid DNA encoding a chimeric receptor, the luciferase reporter gene; and β-gal. For each 100 mm dish, 15 μg of lucifease reporter (PG5E1b) DNA, 15 μg of Gal4-pPAR chimeric receptor DNA, and 1.5 μg of μ-gal plasmid DNA were mixed with 1.4 ml of opti-MEM in the tube. 28 μl of LipoFectamine-2000 reagent was added to 1.4 ml of opti-MEM in the tube, and incubate for 5 min at RT. The diluted Lipofectamine-2000 reagent was combined with the DNA mixture, and incubate for 20 min at RT. After fresh medium was added to each 100 mm dish of cells, 2.8 ml of Lipofectamine2000-DNA mixture was added dropwise to the 100 mm dish containing 14 ml of medium, and incubate 37° C. overnight. On day three cells were trypsinized off the 100 mm dishes and re-plated on 96 well plates. Cells were plated at 2.5×10^4 cells per well in 150 μl of media and 50 μl of compound diluted by media was added. The concentrations of reference agents and test compound added were in the range from 50 μM to 50 pM. After addition of compounds, the plates were incubated at 37° C. for 24 hours. Subsequently cells were washed once with 100 μl of PBS, lysed, and processed for measuring luciferase and μ-gal activity using Dual-Light luciferase kit from Tropix®, according to the manufacturer's recommendations, on an EG&G Bethold MicroLumat LB96P luminometer. EC50 values were obtained using the GraphPad Prism™ program.

hPPARα = target: T2, hPPARα (Homo sapiens, UniProt Q07869); experiment: Test A: transient transfection assay in HepG2 cells, Gal4-PPAR chimeric receptor, luciferase reporter (hPPARα); format: cell-based; settings: HepG2 cells transfected with hPPARα chimeric receptor; 24 hours incubation; compound 50 μM to 50 pM; read-out: Hep G2-hα EC50
T2 sequence (Q07869 200-468 limits assumed): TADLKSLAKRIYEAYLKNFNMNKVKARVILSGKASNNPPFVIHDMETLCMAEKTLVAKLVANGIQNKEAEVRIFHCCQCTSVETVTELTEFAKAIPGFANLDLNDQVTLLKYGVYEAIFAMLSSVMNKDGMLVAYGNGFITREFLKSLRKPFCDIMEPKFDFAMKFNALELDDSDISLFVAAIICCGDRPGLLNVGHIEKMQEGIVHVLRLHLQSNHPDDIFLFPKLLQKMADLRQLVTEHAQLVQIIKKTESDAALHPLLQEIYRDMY
Description: as §1
as §2, with “program. […] Accordingly, the compounds of the present invention should find considerable therapeutic applications for hypercholesterolemia and hyperlipidemia.” for “program.”

EC50 (hPPARβ)	EC50 (hPPARα)	melting point	SMILES
0.019 µM			COc1cc2c(cc1SCc1sc(-c3ccc(C(F)(F)F)cc3)nc1C)CCC(CC(=O)O)O2 (stereo not shown) [Example 14, 7-methoxy-6-[4-methyl-2-(4-trifluoromethyl-pheny)-thiazol-5-ylmethylsulfanyl]-chroman-2-yl-acetic acid]
0.394 µM	1000 µM	149 to 149.5 °C	Cc1nc(-c2ccc(C(F)(F)F)cc2)sc1CSc1ccc2c(c1)CC(CC(=O)O)CO2 (stereo not shown) [Example 18, 6-[4-methyl-2-(4-trifluoromethyl-pheny)-thiazol-5-ylmethylsulfanyl]-chroman-3-yl-acetic acid]
0.762 µM	0.917 µM		Cc1nc(-c2ccc(C(F)(F)F)cc2)sc1CSc1ccc2c(c1)CCC(C(=O)O)O2 (stereo not shown) [Example 3]
3.47 µM			Cc1nc(-c2ccc(C(F)(F)F)cc2)sc1CSc1ccc2c(c1)CCC(C)(CC(=O)O)O2 (stereo not shown) [Example 8, {2-methyl-6-[4-methyl-2-(4-trifluoromethyl-phenyl)-thiazol-5-ylmethylsulfanyl]-chroman-2-yl}-acetic acid]
0.0083 µM	3.74 µM		Cc1nc(-c2ccc(C(F)(F)F)cc2)sc1CSc1ccc2c(c1)CCC(CC(=O)O)O2 (stereo not shown) [Example 5]
0.267 µM	1.96 µM		Cc1nc(-c2ccc(C(F)(F)F)cc2)sc1CSc1ccc2c(c1)CC(CC(=O)O)C2 (stereo not shown) [Example 2, {5-[4-methyl-2-(4-trifluoromethyl-phenyl)-thiazol-5-ylmethylsulfanyl]-indan-2-yl}-acetic acid]
1.54 µM	0.899 µM		Cc1nc(-c2ccc(C(F)(F)F)cc2)sc1CSc1ccc2c(c1)CC(CC(=O)O)O2 (stereo not shown) [Example 4, {5-[4-Methyl-2-(4-trifluoromethyl-phenyl)-thiazol-5-ylmethylsulfanyl]-2,3-dihydro-benzofuran-2-yl}-acetic acid]
0.252 µM	1.3 µM		Cc1cc2c(cc1SCc1sc(-c3ccc(C(F)(F)F)cc3)nc1C)CCC(CC(=O)O)O2 (stereo not shown) [Example 15, 7-Methyl-6-[4-methyl-2-(4-trifluoromethyl-pheny)-thiazol-5-ylmethylsulfanyl]-chroman-2-yl-acetic acid]
0.614 µM			Cc1nc(-c2ccc(C(F)(F)F)cc2)sc1CSc1ccc2c(c1)CCC(CC(=O)O)C2=O (stereo not shown) [Example 7, {6-[4-Methyl-2-(4-trifluoromethylphenyl)thiazol-5-ylmethylsulfanyl]-1-oxo-3,4-dihydro-1H-naphthalen-2-yl}-acetic acid]

The remaining lines, values behind:

SMILES	EC50 (hPPARβ)	EC50 (hPPARα)	melting point
COc1cc2c(cc1SCc1sc(-c3ccc(C(F)(F)F)cc3)nc1C)CCC(CC(=O)O)C2 (stereo not shown) [Example 13, {7-Methoxy-6-[4-methyl-2-(4-trifluoromethyl-phenyl)-thiazol-5-ylmethylsulfanyl]-1,2,3,4-tetrahydro-naphthalen-2-yl}-acetic acid]	0.0241 µM	1.19 µM	
Cc1nc(-c2ccc(C(F)(F)F)cc2)sc1CSc1ccc2c(c1)CC(C(=O)O)CO2 (stereo not shown) [Example 17, 6-[4-methyl-2-(4-trifluoromethyl-pheny)-thiazol-5-ylmethylsulfanyl]-chroman-3-carboxylic acid]	2.13 µM	2.19 µM	139 to 140 °C
Cc1nc(-c2ccc(C(F)(F)F)cc2)sc1CSc1ccc2c(c1)CCN(CC(=O)O)C2 [Example 10, {6-[4-Methyl-2-(4-trifluoromethyl-phenyl)-thiazol-5-ylmethylsulfanyl]-3,4-dihydro-1H-isoquinolin-2-yl}-acetic acid]	0.111 µM		
Cc1nc(-c2ccc(C(F)(F)F)cc2)sc1CSc1ccc2c(c1)C=C(C(=O)O)CO2 [Example 16, 6-[4-methyl-2-(4-trifluoromethyl-pheny)-thiazol-5-ylmethylsulfanyl]-2H-chromene-3-carboxylic acid]	2.21 µM		
Cc1nc(-c2ccc(C(F)(F)F)cc2)sc1CSc1ccc2c(c1)CC(C(=O)O)C2 (stereo not shown) [Example 1, 5-[4-methyl-2-(4-trifluoromethyl-phenyl)-thiazol-5-ylmethylsulfanyl]-indan-2-carboxylic acid]	0.178 µM	0.384 µM	
Cc1nc(-c2ccc(C(F)(F)F)cc2)sc1CSc1ccc2c(c1)CCC(=O)N2CC(=O)O [Example 12]	0.896 µM		
Cc1nc(-c2ccc(C(F)(F)F)cc2)sc1COc1ccc2c(CC(=O)O)csc2c1 [Example 23, {6-[4-Methyl-2-(4-trifluoromethyl-phenyl)-thiazol-5-ylmethoxy]-benzo[b]thiophen-3-yl}-acetic acid]		0.572 µM	
Cc1nc(-c2ccc(C(F)(F)F)cc2)sc1CSc1ccc2oc(C(=O)O)cc2c1 [Example 6, 5-[4-methyl-2-(4-trifluoromethyl-phenyl)-thiazol-5-ylmethylsulfanyl]-benzofuran-2-carboxylic acid]		2.04 µM	207 to 209 °C
Cc1nc(-c2ccc(C(F)(F)F)cc2)sc1CSc1ccc2c(c1)CCCN2CC(=O)O [Example 11, {6-[4-methyl-2-(4-trifluoromethyl-phenyl)-thiazol-5-ylmethylsulfanyl]-3,4-dihydro-2H-quinolin-1-yl}-acetic acid]	0.286 µM	1.93 µM	
COc1cc2c(cc1SCc1sc(-c3ccc(C(F)(F)F)cc3)nc1C)CCC2CC(=O)O (stereo not shown) [Example 19, {6-Methoxy-5-[4-methyl-2-(4-trifluoromethyl-phenyl)-thiazol-5-ylmethylsulfanyl]-indan-1-yl}-acetic acid]	0.113 µM	0.042 µM	
COc1cc2on(CC(=O)O)c(=O)c2cc1SCc1sc(-c2ccc(C(F)(F)F)cc2)nc1C [Example 22, 6-Methoxy-5-[4-Methyl-2-(4-trifluoromethyl-pheny)-thiazol-5-ylmethylsulfanyl]-3-oxo-3H-benzo[d]isoxazo-2-yl-acetic-acid]			245 to 247 °C
